Source: patent US8969352B2, “Substituted 2-azabicycles and their use as orexin receptor modulators” (Janssen Pharmaceutica NV, priority 2013, dated 2015)
Read-outs that look alike come from different tables or passages of the source.

Columns and labels:
human orexin 1 receptor = human orexin 1 receptor (Homo sapiens, UniProt O43613); assay: Human orexin 1 receptor radioligand binding; details: read-out: hOX1 Ki
Procedure: (§1) Rat and Human Orexin 1 Receptor Radioligand Binding Studies
(§2) After centrifugation (2K×G, 5 min at 4° C.), the supernatant was aspirated and the pellets frozen and stored at −80° C. […] Each cell pellet from a 15 cm plate was resuspended in 10 mL, stored on ice, and homogenized for 45 sec prior to addition to the reactions. […] The final concentration of DMSO in the reactions is equal to or less than 0.1%. Total and nonspecific binding was determined in the absence and presence of 10 μM almorexant. The total volume of each reaction is 200 μL (20 μL of diluted compounds, 80 μL of [^3H]-(1-(5-(2-fluoro-phenyl)-2-methyl-thiazol-4-yl)-1-((S)-2-(5-phenyl-(1,3,4)oxadiazol-2-ylmethyl)-pyrrolidin-1-yl)-methanone) diluted in PBS and 100 μL of the cell suspension). […] The plates were washed 3 times by aspirating 30 ml PBS through the plates. Plates were dried in 55° C. oven for 60 min, scintillation fluid was added, and the radioactivity was counted on a Topcount (Packard).

human orexin 2 receptor = human orexin 2 receptor (Homo sapiens (Human), UniProt O43614); assay: Human orexin 2 receptor radioligand binding; details: read-out: hOX2 Ki
Procedure: Human Orexin 2 Receptor Radioligand Binding Studies
as §2, with “sec just” for “sec”, “reactions. Competition binding experiments in 96 well polypropylene plates were performed using [^3H]-EMPA (Moraveck Corporation, specific activity=29.6 Ci/mmol), diluted to a 5 nM concentration in PBS (2 nM final concentration).” for “reactions.”, “[^3H]-EMPA” for “[^3H]-(1-(5-(2-fluoro-phenyl)-2-methyl-thiazol-4-yl)-1-((S)-2-(5-phenyl-(1,3,4)oxadiazol-2-ylmethyl)-pyrrolidin-1-yl)-methanone)”

rat orexin 1 receptor = rat orexin 1 receptor (Rattus norvegicus, UniProt P56718); assay: Rat orexin 1 receptor radioligand binding; details: read-out: rOX1 Ki
Procedure: as §1, §2

[1] = CHO cells stably expressing human orexin 1 receptor, competitive radioligand binding, apparent Ki
[2] = HEK293 stably expressing human orexin 2 receptor, [3H]-EMPA competitive binding, apparent Ki
[3] = HEK293 cells stably expressing rat orexin 1 receptor, competitive radioligand binding, apparent Ki

Chain of human orexin 2 receptor (O43614 whole entry): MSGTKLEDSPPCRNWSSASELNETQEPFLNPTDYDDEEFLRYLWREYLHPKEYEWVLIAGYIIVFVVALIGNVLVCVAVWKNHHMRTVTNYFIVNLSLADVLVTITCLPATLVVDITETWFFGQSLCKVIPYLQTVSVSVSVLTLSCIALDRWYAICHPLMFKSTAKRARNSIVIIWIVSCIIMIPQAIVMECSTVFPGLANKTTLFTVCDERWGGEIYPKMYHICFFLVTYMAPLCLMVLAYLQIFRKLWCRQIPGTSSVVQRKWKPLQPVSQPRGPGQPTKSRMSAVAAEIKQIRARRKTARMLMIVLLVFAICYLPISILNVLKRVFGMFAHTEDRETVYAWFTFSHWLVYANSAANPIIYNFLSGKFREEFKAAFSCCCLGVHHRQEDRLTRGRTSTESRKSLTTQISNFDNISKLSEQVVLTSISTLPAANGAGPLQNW

CCOc1ccc2cccnc2c1C(=O)N1CC2CC(Oc3ccc(C(F)(F)F)cn3)C1C2 (racemic) [Example 10, (R/S)-(7-ethoxyquinolin-8-yl)(6-((5-(trifluoromethyl)pyridin-2-yl)oxy)-2-azabicyclo[2.2.1]heptan-2-yl)methanone]
Ki (human orexin 1 receptor; [1]): 27 nM | Ki (human orexin 2 receptor; [2]): 526 nM | Ki (rat orexin 1 receptor; [3]): 18 nM

CCOc1ncc2ccccc2c1C(=O)N1CC2CC(Oc3cnc(C(F)(F)F)cn3)C1C2 (racemic) [Example 3]
Ki (human orexin 1 receptor; [1]): 123 nM | Ki (human orexin 2 receptor; [2]): 8900 nM | Ki (rat orexin 1 receptor; [3]): 63 nM

Cc1ccc(-n2nccn2)c(C(=O)N2C[C@H]3C[C@@H](Oc4ccc(Br)cn4)[C@@H]2C3)n1 [Example 50, ((1S,4R,6R)-6-((5-bromopyridin-2-yl)oxy)-2-azabicyclo[2.2.1]heptan-2-yl)(6-methyl-3-(2H-1,2,3-triazol-2-yl)pyridin-2-yl)methanone]
Ki (human orexin 1 receptor; [1]): 9 nM | Ki (human orexin 2 receptor; [2]): 670 nM | Ki (rat orexin 1 receptor; [3]): 7 nM

CCOc1ccc(C)nc1C(=O)N1C[C@H]2C[C@@H](Oc3ccc(C(F)(F)F)cn3)[C@@H]1C2 [Example 37, (3-ethoxy-6-methylpyridin-2-yl)((1S,4R,6R)-6-((5-(trifluoromethyl)pyridin-2-yl)oxy)-2-azabicyclo[2.2.1]heptan-2-yl)methanone]
Ki (human orexin 1 receptor; [1]): 265 nM | Ki (human orexin 2 receptor; [2]): 1800 nM | Ki (rat orexin 1 receptor; [3]): 170 nM

O=C(c1cccc(F)c1-c1ncccn1)N1C[C@H]2C[C@@H](Oc3ccc(Br)cn3)[C@@H]1C2 [Example 48, ((1S,4R,6R)-6-((5-bromopyridin-2-yl)oxy)-2-azabicyclo[2.2.1]heptan-2-yl)(3-fluoro-2-(pyrimidin-2-yl)phenyl)methanone]
Ki (human orexin 1 receptor; [1]): 6 nM | Ki (human orexin 2 receptor; [2]): 972 nM | Ki (rat orexin 1 receptor; [3]): 3 nM

O=C(c1cccc2cc[nH]c12)N1C[C@H]2C[C@@H](Oc3ccc(C(F)(F)F)cn3)[C@@H]1C2 [Example 42, (1H-indol-7-yl)((1S,4R,6R)-6-((5-(trifluoromethyl)pyridin-2-yl)oxy)-2-azabicyclo[2.2.1]heptan-2-yl)methanone]
Ki (human orexin 1 receptor; [1]): 175 nM | Ki (human orexin 2 receptor; [2]): 5800 nM | Ki (rat orexin 1 receptor; [3]): 184 nM

Cc1ccc(-n2nccn2)c(C(=O)N2CC3CC(Oc4cnc(C(F)(F)F)cn4)C2C3)n1 (racemic) [Example 2, (R/S)-(6-methyl-3-(2H-1,2,3-triazol-2-yl)pyridin-2-yl)(6-((5-(trifluoromethyl)pyrazin-2-yl)oxy)-2-azabicyclo[2.2.1]heptan-2-yl)methanone]
Ki (human orexin 1 receptor; [1]): 342 nM | Ki (human orexin 2 receptor; [2]): 10000 nM | Ki (rat orexin 1 receptor; [3]): 200 nM

O=C(c1ccc(F)cc1-n1nccn1)N1C[C@H]2C[C@@H](Oc3ccc(C(F)(F)F)cn3)[C@@H]1C2 [Example 44, (4-fluoro-2-(2H-1,2,3-triazol-2-yl)phenyl)((1S,4R,6R)-6-((5-(trifluoromethyl)pyridin-2-yl)oxy)-2-azabicyclo[2.2.1]heptan-2-yl)methanone]
Ki (human orexin 1 receptor; [1]): 42 nM | Ki (human orexin 2 receptor; [2]): 2200 nM | Ki (rat orexin 1 receptor; [3]): 22 nM

O=C(c1ccccc1-n1nccn1)N1C[C@H]2C[C@@H](Nc3cnc(C(F)(F)F)cn3)[C@@H]1C2 [Example 59, (2-(2H-1,2,3-triazol-2-yl)phenyl)((1S,4S,6R)-6-((5-(trifluoromethyl)pyrazin-2-yl)amino)-2-azabicyclo[2.2.1]heptan-2-yl)methanone]
Ki (human orexin 1 receptor; [1]): 9 nM | Ki (human orexin 2 receptor; [2]): 213 nM | Ki (rat orexin 1 receptor; [3]): 6 nM

O=C(c1cccc(F)c1Br)N1C[C@H]2C[C@@H](Oc3ccc(C(F)(F)F)cn3)[C@@H]1C2 [Example 45, (2-bromo-3-fluorophenyl)((1S,4R,6R)-6-((5-(trifluoromethyl)pyridin-2-yl)oxy)-2-azabicyclo[2.2.1]heptan-2-yl)methanone]
Ki (human orexin 1 receptor; [1]): 55 nM | Ki (human orexin 2 receptor; [2]): 1500 nM | Ki (rat orexin 1 receptor; [3]): 60 nM

O=C(c1cc(F)ccc1-n1nccn1)N1C[C@H]2C[C@@H](Nc3ccc(C(F)(F)F)cn3)[C@@H]1C2 [Example 57, (5-fluoro-2-(2H-1,2,3-triazol-2-yl)phenyl)((1S,4S,6R)-6-((5-(trifluoromethyl)pyridin-2-yl)amino)-2-azabicyclo[2.2.1]heptan-2-yl)methanone]
Ki (human orexin 1 receptor; [1]): 5 nM | Ki (human orexin 2 receptor; [2]): 252 nM | Ki (rat orexin 1 receptor; [3]): 6 nM

COc1ccc(C(=O)N2CC3CC(Oc4ccc(C(F)(F)F)cn4)C2C3)c(-c2ncccn2)c1 (racemic) [Example 12, (R/S)-(4-methoxy-2-(pyrimidin-2-yl)phenyl)(6-((5-(trifluoromethyl)pyridin-2-yl)oxy)-2-azabicyclo[2.2.1]heptan-2-yl)methanone]
Ki (human orexin 1 receptor; [1]): 59 nM | Ki (human orexin 2 receptor; [2]): > 10000 nM | Ki (rat orexin 1 receptor; [3]): 44 nM

CCOc1ccc2cccnc2c1C(=O)N1C[C@H]2C[C@@H](Nc3ccc(C(F)(F)F)cn3)[C@@H]1C2 [Example 56, (7-ethoxyquinolin-8-yl)((1S,4S,6R)-6-((5-(trifluoromethyl)pyridin-2-yl)amino)-2-azabicyclo[2.2.1]heptan-2-yl)methanone]
Ki (human orexin 1 receptor; [1]): 10 nM | Ki (human orexin 2 receptor; [2]): 192 nM | Ki (rat orexin 1 receptor; [3]): 8 nM

COc1ccc(C(=O)N2CC3CC(Oc4ccc(C(F)(F)F)cn4)C2C3)c(-n2nccn2)c1 (racemic) [Example 13]
Ki (human orexin 1 receptor; [1]): 109 nM | Ki (human orexin 2 receptor; [2]): > 10000 nM | Ki (rat orexin 1 receptor; [3]): 52 nM

O=C(c1cc(F)ccc1-c1ncccn1)N1CC2CC(Oc3ccc(C(F)(F)F)cn3)C1C2 (racemic) [Example 19, (R/S)-(5-fluoro-2-(pyrimidin-2-yl)phenyl)(6-((5-(trifluoromethyl)pyridin-2-yl)oxy)-2-azabicyclo[2.2.1]heptan-2-yl)methanone]
Ki (human orexin 1 receptor; [1]): 9 nM | Ki (human orexin 2 receptor; [2]): 945 nM | Ki (rat orexin 1 receptor; [3]): 18 nM

Cc1ccc(C(=O)N2C[C@H]3C[C@@H](Oc4ccc(C(F)(F)F)cn4)[C@@H]2C3)c(-n2ccnn2)n1 [Example 34, (6-methyl-2-(1H-1,2,3-triazol-1-yl)pyridin-3-yl)((1S,4R,6R)-6-((5-(trifluoromethyl)pyridin-2-yl)oxy)-2-azabicyclo[2.2.1]heptan-2-yl)methanone]
Ki (human orexin 1 receptor; [1]): 462 nM | Ki (human orexin 2 receptor; [2]): 1100 nM | Ki (rat orexin 1 receptor; [3]): 117 nM

COc1cccc(-c2ccn[nH]2)c1C(=O)N1C[C@H]2C[C@@H](Oc3ccc(C(F)(F)F)cn3)[C@@H]1C2 [Example 39, (2-methoxy-6-(1H-pyrazol-5-yl)phenyl)((1S,4R,6R)-6-((5-(trifluoromethyl)pyridin-2-yl)oxy)-2-azabicyclo[2.2.1]heptan-2-yl)methanone]
Ki (human orexin 1 receptor; [1]): 17 nM | Ki (human orexin 2 receptor; [2]): 108 nM | Ki (rat orexin 1 receptor; [3]): 132 nM

O=C(c1cc(F)ccc1-c1ncccn1)N1C[C@H]2C[C@@H](Nc3ccc(C(F)(F)F)cn3)[C@@H]1C2 [Example 58, (5-fluoro-2-(pyrimidin-2-yl)phenyl)((1S,4S,6R)-6-((5-(trifluoromethyl)pyridin-2-yl)amino)-2-azabicyclo[2.2.1]heptan-2-yl)methanone]
Ki (human orexin 1 receptor; [1]): 2 nM | Ki (human orexin 2 receptor; [2]): 181 nM | Ki (rat orexin 1 receptor; [3]): 4 nM

Cc1ccc(-n2nccn2)c(C(=O)N2C[C@H]3C[C@@H](Nc4ccc(C(F)(F)F)cn4)[C@@H]2C3)n1 [Example 54, (6-methyl-3-(2H-1,2,3-triazol-2-yl)pyridin-2-yl)((1S,4S,6R)-6-((5-(trifluoromethyl)pyridin-2-yl)amino)-2-azabicyclo[2.2.1]heptan-2-yl)methanone]
Ki (human orexin 1 receptor): 6 nM | Ki (human orexin 2 receptor): 132 nM | Ki (rat orexin 1 receptor): 5 nM

Cc1ccc(C(=O)N2C[C@H]3C[C@@H](Oc4ccc(C(F)(F)F)cn4)[C@@H]2C3)c(-n2nccn2)n1 [Example 29, (6-methyl-2-(2H-1,2,3-triazol-2-yl)pyridin-3-yl)((1S,4R,6R)-6-((5-(trifluoromethyl)pyridin-2-yl)oxy)-2-azabicyclo[2.2.1]heptan-2-yl)methanone]
Ki (human orexin 1 receptor; [1]): 47 nM | Ki (human orexin 2 receptor; [2]): > 10000 nM | Ki (rat orexin 1 receptor; [3]): 55 nM

O=C(c1ccccc1-n1nccn1)N1C[C@H]2C[C@@H](Oc3ccc(Br)cn3)[C@@H]1C2 [Example 49, (2-(2H-1,2,3-triazol-2-yl)phenyl)((1S,4R,6R)-6-((5-bromopyridin-2-yl)oxy)-2-azabicyclo[2.2.1]heptan-2-yl)methanone]
Ki (human orexin 1 receptor; [1]): 6 nM | Ki (human orexin 2 receptor; [2]): 507 nM | Ki (rat orexin 1 receptor; [3]): 6 nM

COc1cccc(-c2ncccn2)c1C(=O)N1C[C@H]2C[C@@H](Oc3ccc(C(F)(F)F)cn3)[C@@H]1C2 [Example 40, (2-methoxy-6-(pyrimidin-2-yl)phenyl)((1S,4R,6R)-6-((5-(trifluoromethyl)pyridin-2-yl)oxy)-2-azabicyclo[2.2.1]heptan-2-yl)methanone]
Ki (human orexin 1 receptor; [1]): 9 nM | Ki (human orexin 2 receptor; [2]): 340 nM | Ki (rat orexin 1 receptor; [3]): 16 nM
